Laboratory results as given in PubChem BioAssay (NCI).
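Dose response: 5 concentrations. Exposure: 48 h. Format: 96-well plates. Endpoint: linear interpolation; highest concentration if not reached. At the GI50, growth is halved. At the TGI there is no net growth.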

Legend:
Assay in all cases: DTP human tumour cell line panel, 48 h
[1] = system: CAKI-1 renal
[2] = system: HCC-2998 colon
[3] = system: RXF 393 renal
[4] = system: M14 melanoma
[5] = system: SNB-75 CNS
[6] = system: MALME-3M melanoma
[7] = system: SK-MEL-28 melanoma
[8] = system: OVCAR-5 ovarian
[9] = system: PC-3 prostate
[10] = system: DU-145 prostate

Compound	TGI [1]	TGI [2]	TGI [3]	TGI [4]	TGI [5]	TGI [6]	TGI [7]	TGI [8]	GI50 [1]	GI50 [2]	GI50 [9]	TGI [9]	GI50 [3]	GI50 [4]	GI50 [6]	GI50 [7]	GI50 [10]	TGI [10]	GI50 [8]	GI50 [5]
O=S(O)CCCCSSCc1ccccc1CSSCCCCS(=O)O	81.8 µM	> 100 µM	22.8 µM	26.7 µM	> 100 µM	28.5 µM	31.9 µM	> 100 µM												
O=C(CCCN1CC=C(n2c(=O)[nH]c3ccccc32)CC1)c1ccc(F)cc1	72.5 µM	> 100 µM	> 100 µM	65.5 µM		> 100 µM	> 100 µM	> 100 µM	21.7 µM	48 µM	29 µM	> 100 µM	19 µM	23 µM	38.9 µM	52.6 µM	68.1 µM	> 100 µM	94.1 µM	
O=C(/C=C/c1ccccc1)/C=C/c1ccccc1	> 100 µM	> 100 µM	> 100 µM	39.8 µM	> 100 µM	57.7 µM	42.9 µM	> 100 µM												
CC(C)c1ccccc1S(=O)c1ccccc1C(C)(C)O (configuration not stated)	> 100 µM		> 100 µM	> 100 µM	> 100 µM	> 100 µM	> 100 µM	> 100 µM				> 100 µM						> 100 µM		
COc1cc2c(cc1OC)C13CCN4CC5=CCOC6CC(=O)N2C1C6C5CC43O (configuration not stated)	> 100 µM	> 100 µM		> 100 µM	> 100 µM	> 100 µM	> 100 µM	> 100 µM				> 100 µM						> 100 µM		
CSC1(CC(=O)N(C)C)C(=O)Nc2ccccc21 (configuration not stated)		> 100 µM		> 100 µM	> 100 µM	> 100 µM	> 100 µM	> 100 µM				> 100 µM						> 100 µM		
CCCCCCCCCc1cc(=O)c2c(O)cccc2o1	> 100 µM	> 100 µM	> 100 µM	> 100 µM	> 10 µM	> 100 µM	> 100 µM	> 100 µM												
O=C(O)c1c(-c2nccc3ccccc23)[nH]c(-c2ccccc2)c1S(=O)(=O)O	> 100 µM		> 100 µM	> 100 µM	> 100 µM	> 100 µM	> 100 µM	> 100 µM				> 100 µM						> 100 µM		
CCOC(=O)[C@H](CCCNC(=O)OC(C)(C)C)NCc1ccc(OC)c(OC)c1	> 100 µM	> 100 µM	> 100 µM	> 100 µM	> 100 µM	> 100 µM	> 100 µM	> 100 µM												
O=C(O)c1cccc(OCCO)c1	> 100 µM		> 100 µM	> 100 µM		> 100 µM	> 100 µM	> 100 µM				> 100 µM						> 100 µM		
Cc1[nH][nH]c(=O)c1C=Nc1ccc(-c2nc3ccccc3[nH]2)cc1	51.2 µM		46.6 µM	50.9 µM	40.5 µM			> 100 µM	19.1 µM		80.8 µM	> 100 µM	11.1 µM	30.6 µM			34.8 µM	> 100 µM	46 µM	19.6 µM
Cc1cn2c(/C=C3/C(=O)Nc4ccccc43)c(-c3ccc(Cl)cc3)nc2s1	25.5 µM		12.9 µM	15.2 µM					12.1 µM		9.81 µM	16.9 µM	3.72 µM	8.39 µM						
O=C1CSC(Cc2nc3ccccc3[nH]2)=N1	31.4 µM	36.3 µM	33.1 µM	33.4 µM	27.4 µM	18.4 µM	> 76.1 µM	57.5 µM												
CCOC(=O)C1N(S(=O)(=O)c2ccc(C)cc2)CCC12C(c1ccc(OC)cc1)NC1CCCCC12 (configuration not stated)	> 100 µM	> 100 µM	> 100 µM	> 100 µM	77.8 µM	> 100 µM	> 100 µM	> 100 µM												
O=C(CCC(=O)Nc1cccc(Cl)c1)CC(=O)c1ccc(Cl)cc1	> 100 µM	> 100 µM		> 100 µM	> 100 µM	> 100 µM	> 100 µM	> 100 µM												
O=C(Nc1ccc([N+](=O)[O-])cc1)C1C(=O)C(=O)N(c2ccc([N+](=O)[O-])cc2)C1=O (configuration not stated)	> 100 µM	> 100 µM	> 100 µM	> 100 µM	> 100 µM	> 100 µM	> 100 µM	> 100 µM												
N#CC(/C(=N/NC(=O)C(=O)NN)C(=O)NC12CC3CC(CC(C3)C1)C2)c1ccccc1 (configuration not stated)	> 100 µM	> 100 µM	> 100 µM	> 100 µM	> 100 µM	> 100 µM	> 100 µM	> 100 µM												
COC(=O)/C=C/C1C(C(=O)OC)C2(C(=O)OC)CCC1(C(=O)OC)N2 (configuration not stated)	> 100 µM	> 100 µM	> 100 µM	> 100 µM	> 100 µM	> 100 µM		> 100 µM												
CCN1C(=O)N(CC)C2C1NC(=S)N2/N=C/C=C/c1cccs1 (configuration not stated)	> 100 µM	> 100 µM	> 100 µM	17.6 µM		> 100 µM	> 100 µM	> 100 µM	0.248 µM	0.709 µM	0.344 µM	> 100 µM	0.182 µM	0.241 µM	0.485 µM		0.341 µM	> 100 µM	0.544 µM	
CCCCCc1c(C)[nH]c(/C=C2\N=C(c3ccc[nH]3)C=C2CC)c1C	0.214 µM	0.174 µM		0.0237 µM		0.187 µM	0.144 µM	0.785 µM	0.0191 µM	< 0.01 µM	< 0.011 µM	1.23 µM		< 0.01 µM	0.0333 µM	0.0296 µM	< 0.01 µM	1.19 µM	0.0179 µM	
Nc1c(C(=O)N/N=C/c2ccc(-c3ccc(Cl)cc3)o2)cnn1-c1ccnc2c(C(F)(F)F)cccc12	> 100 µM	> 100 µM		> 100 µM	> 100 µM	> 100 µM	> 100 µM	> 100 µM	> 100 µM	> 100 µM	35 µM	> 100 µM		> 100 µM	> 100 µM	> 100 µM	> 100 µM	> 100 µM	> 100 µM	65.4 µM
